Read-outs that look alike come from different tables or passages of the source.
Biological target: T1, Rhesus PDE2A3 (Macaca mulatta, UniProt B3VTJ2)
T1 construct: made in house; host or cells: AD293 cells, transient transfection, pcDNA3.3-TOPO; lysate supernatant used as enzyme
T1 sequence (B3VTJ2 1-941): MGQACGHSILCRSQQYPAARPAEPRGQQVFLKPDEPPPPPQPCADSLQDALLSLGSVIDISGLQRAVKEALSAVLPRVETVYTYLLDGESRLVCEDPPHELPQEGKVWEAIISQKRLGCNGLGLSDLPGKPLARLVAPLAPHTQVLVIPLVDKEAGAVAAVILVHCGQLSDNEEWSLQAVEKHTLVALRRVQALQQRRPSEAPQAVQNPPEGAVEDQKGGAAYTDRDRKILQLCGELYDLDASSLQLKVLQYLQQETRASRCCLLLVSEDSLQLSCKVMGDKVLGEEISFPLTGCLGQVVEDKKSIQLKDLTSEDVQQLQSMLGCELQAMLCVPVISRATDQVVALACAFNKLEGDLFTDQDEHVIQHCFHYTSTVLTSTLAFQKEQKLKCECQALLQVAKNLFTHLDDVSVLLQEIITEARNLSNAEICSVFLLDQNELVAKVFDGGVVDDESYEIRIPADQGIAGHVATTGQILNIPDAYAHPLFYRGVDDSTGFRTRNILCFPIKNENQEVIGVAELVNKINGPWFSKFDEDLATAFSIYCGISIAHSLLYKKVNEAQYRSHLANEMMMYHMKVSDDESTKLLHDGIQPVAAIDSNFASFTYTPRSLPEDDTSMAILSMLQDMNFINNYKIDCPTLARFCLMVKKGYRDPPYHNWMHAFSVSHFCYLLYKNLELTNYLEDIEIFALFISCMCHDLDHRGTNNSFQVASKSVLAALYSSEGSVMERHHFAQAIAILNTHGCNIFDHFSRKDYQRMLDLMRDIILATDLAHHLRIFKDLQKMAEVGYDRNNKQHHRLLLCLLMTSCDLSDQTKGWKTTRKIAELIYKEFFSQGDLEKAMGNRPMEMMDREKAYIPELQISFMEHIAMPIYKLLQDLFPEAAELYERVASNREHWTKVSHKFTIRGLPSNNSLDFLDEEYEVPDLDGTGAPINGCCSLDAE
Test: PDE2 fluorescence polarization (IMAP FP) inhibition assay, rhesus enzyme
Format: biochemical, rhesus macaque
Summary of the method: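 Lysate of AD293 cells transiently expressing rhesus PDE2A3, diluted for ~20% substrate conversion, with 50 nM FAM-cAMP and 1 uM cGMP activator in pH 7.2 Tris/MgCl2 buffer, 60 min at room temperature.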

[1] = Lab A, read-out: Rhesus PDE2 Ki (nM) Lab A
[2] = Lab B, read-out: Rhesus PDE2 Ki (nM) Lab B

Ki [1] [nM]	Ki [2] [nM]	Structure (SMILES)
25.6	8.7	COc1cccc(Cc2nc(-c3cnn(C(C)c4ccc(C(F)(F)F)cc4F)c3)cc(=O)[nH]2)c1 (single isomer, unassigned) [Example 141, (S)- or (R)-6-(1-(1-(2-fluoro-4-(trifluoromethyl)phenyl)ethyl)-1H-pyrazol-4-yl)-2-(3-methoxybenzyl)pyrimidin-4(3H)-one]
3.3	1.4	COc1cc(Cc2nc(-c3cnn(C(C)c4ccc(C(F)(F)F)cc4F)c3)cc(=O)[nH]2)ccc1F (single isomer, unassigned) [Example 142, (R)- or (S)-2-(4-fluoro-3-methoxybenzyl)-6-(1-(1-(2-fluoro-4-(trifluoromethyl)phenyl)ethyl)-1H-pyrazol-4-yl)pyrimidin-4(3H)-one]
21.3	10.9	COc1cc(Cc2nc(-c3cnn(C(C)c4ccc(C(F)(F)F)cc4F)c3)cc(=O)[nH]2)ccc1F (single isomer, unassigned) [Example 143, (S)- or (R)-2-(4-fluoro-3-methoxybenzyl)-6-(1-(1-(2-fluoro-4-(trifluoromethyl)phenyl)ethyl)-1H-pyrazol-4-yl)pyrimidin-4(3H)-one]
31.5		COc1ccc(Cc2nc(-c3cnn(C(C)c4ccc(C(F)(F)F)cc4F)c3)cc(=O)[nH]2)cc1F (single isomer, unassigned) [Example 146, (R)- or (S)-6-(1-(1-(2-fluoro-4-(trifluoromethyl)phenyl)ethyl)-1H-pyrazol-4-yl)-2-(3-fluoro-4-methoxybenzyl)pyrimidin-4(3H)-one]
3.6		COc1ccc(Cc2nc(-c3cnn(C(C)c4ccc(C(F)(F)F)cc4F)c3)cc(=O)[nH]2)cc1F (single isomer, unassigned) [Example 147, (S)- or (R)-6-(1-(1-(2-fluoro-4-(trifluoromethyl)phenyl)ethyl)-1H-pyrazol-4-yl)-2-(3-fluoro-4-methoxybenzyl)pyrimidin-4(3H)-one]
47.9		Cc1ccc(C(C)n2cc(-c3cc(=O)[nH]c(C)n3)cn2)c(Cl)c1 (single isomer, unassigned) [Example 148, (R)- or (S)-6-(1-(1-(2-chloro-4-methylphenyl)ethyl)-1H-pyrazol-4-yl)-2-methylpyrimidin-4(3H)-one]
	194	Cc1nc(-c2cn(C(C)c3ccc(C(F)(F)F)cc3)nc2C)cc(=O)[nH]1 (stereo not drawn) [Example 80, 2-methyl-6-(3-methyl-1-(1-(4-(trifluoromethyl)phenyl)ethyl)-1H-pyrazol-4-yl)pyrimidin-4(3H)-one]
	306	Cc1nc(-c2cnn(C(C)c3ccc(C(F)(F)F)cc3)c2)cc(=O)[nH]1 (stereo not drawn) [Example 126, 2-methyl-6-(1-(1-(4-(trifluoromethyl)phenyl)ethyl)-1H-pyrazol-4-yl)pyrimidin-4(3H)-one]
	184	CCC(c1ccc(C(F)(F)F)cc1)c1cnn(-c2cc(=O)[nH]c(C)n2)c1 (stereo not drawn) [Example 129, 2-methyl-6-(4-(1-(4-(trifluoromethyl)phenyl)propyl)-1H-pyrazol-1-yl)pyrimidin-4(3H)-one]
	138	Cc1nc(-n2cc(C(c3ccc(C(F)(F)F)cc3)C(C)C)cn2)cc(=O)[nH]1 (stereo not drawn) [Example 130]
1.3	0.6	COc1ccc(Cc2nc(-n3cc(C(C)c4ccc(C(F)(F)F)cc4)cn3)cc(=O)[nH]2)cc1OC (stereo not drawn) [Example 137, 2-(3,4-dimethoxybenzyl)-6-(4-(1-(4-(trifluoromethyl)phenyl)ethyl)-1H-pyrazol-1-yl)pyrimidin-4(3H)-one]
	825	Cc1ccc(C(C)n2cc(-c3cc(=O)[nH]c(C)n3)cn2)cc1 (stereo not drawn) [Example 153, 2-methyl-6-(1-(1-(p-tolyl)ethyl)-1H-pyrazol-4-yl)pyrimidin-4(3H)-one]
	244	CCCC(c1ccc(C(F)(F)F)cc1)n1cc(-c2cc(=O)[nH]c(C)n2)cn1 (stereo not drawn) [Example 154, 2-methyl-6-(1-(1-(4-(trifluoromethyl)phenyl)butyl)-1H-pyrazol-4-yl)pynmidin-4(3H)-one]

More lines, now with the values behind:

Structure (SMILES)	Ki [1] [nM]	Ki [2] [nM]
CC(C)c1nc(-c2cnn(C(C)c3ccc(C(F)(F)F)cc3F)c2)cc(=O)[nH]1 (stereo not drawn) [Example 9, 6-(1-(1-(2-Fluoro-4-(trifluoromethyl)phenyl)ethyl)-1H-pyrazol-4-yl)-2-isopropylpyrimidin-4(3H)-one]	58.8	30.7
CC(c1ccc(C(F)(F)F)cc1F)n1cc(-c2cc(=O)[nH]c(C3CC3)n2)cn1 (stereo not drawn) [Example 10]	25	
Cc1nc(-c2cnn(Cc3ccc(OC(F)(F)F)cc3)c2)cc(=O)[nH]1 [Example 29, 2-Methyl-6-(1-(4-(trifluoromethoxy)benzyl)-1H-pyrazol-4-yl)pyrimidin-4(3H)-one]		1210
Cc1nc(-n2cc(Cc3ccc(OC(F)(F)F)cc3)cn2)cc(=O)[nH]1 [Example 30, 2-Methyl-6-(4-(4-(trifluoromethoxy)benzyl)-1H-pyrazol-1-yl)pyrimidin-4(3H)-one]		2940
CCC(c1ccc(C(F)(F)F)cc1F)n1cc(-c2cc(=O)[nH]c(C)n2)cn1 (stereo not drawn) [Example 33, 6-(1-(1-(2-fluoro-4-(trifluoromethyl)phenyl)propyl)-1H-pyrazol-4-yl)-2-methylpyrimidin-4(3H)-one]	36.6	19.7
Cc1nc(-c2cnn(C(c3ccc(C(F)(F)F)cc3F)C(C)C)c2)cc(=O)[nH]1 (stereo not drawn) [Example 34, 6-(1-(1-(2-fluoro-4-(trifluoromethyl)phenyl)-2-methylpropyl)-1H-pyrazol-4-yl)-2-methylpynmidin-4(3H)-one]	54.6	26.9
CC(c1ccc(C(F)(F)F)cc1F)n1cc(-c2cc(=O)[nH]c(Cc3ccccc3)n2)cn1 (stereo not drawn) [Example 35, 2-benzyl-6-(1-(1-(2-fluoro-4-(trifluoromethyl)phenyl)ethyl)-1H-pyrazol-4-yl)pyrimidin-4(3H)-one]	38.3	17.3
CCc1nc(-c2cnn(C(C)c3ccc(C(F)(F)F)cc3F)c2)cc(=O)[nH]1 (stereo not drawn) [Example 36, 2-ethyl-6-(1-(1-(2-fluoro-4-(trifluoromethyl)phenyl)ethyl)-1H-pyrazol-4-yl)pyrimidin-4(3H)-one]	25.7	
Cc1nc(-c2cnn(C3(c4ccc(C(F)(F)F)cc4F)CCC3)c2)cc(=O)[nH]1 [Example 37, 6-(1-(1-(2-fluoro-4-(trifluoromethyl)phenyl)cyclobutyl)-1H-pyrazol-4-yl)-2-methylpyrimidin-4(3H)-one]	13.1	
Cc1nc(-n2cc(C(C)c3ccc(C4CC4)cc3)cn2)cc(=O)[nH]1 (stereo not drawn) [Example 39, 6-(4-(1-(4-cyclopropylphenyl)ethyl)-1H-pyrazol-1-yl)-2-methylpyrimidin-4(3H)-one]		99.9
Cc1nc(-n2cc(C(C)c3ccc(C4(C)CC4)cc3)cn2)cc(=O)[nH]1 (stereo not drawn) [Example 40, 2-methyl-6-(4-(1-(4-(1-methylcyclopropyl)phenyl)ethyl)-1H-pyrazol-1-yl)pyrimidin-4(3H)-one]		211
Cc1nc(-n2cc(Cc3ccc(C(F)(F)F)cc3)cn2)cc(=O)[nH]1 [Example 48, 2-methyl-6-(4-(4-(trifluoromethyl)benzyl)-1H-pyrazol-1-yl)pyrimidin-4(3H)-one]		333

— patent US10287269B2, “Pyrazolyl pyrimidinone compounds as PDE2 inhibitors” (Merck Sharp & Dohme Corp., priority 2015, dated 2019)
